{
  "source": "patent EP4464714A1",
  "about": "“SCREENING METHOD FOR CELL-REPELLING PEPTIDES” (Karlsruher Institut für Technologie, priority 2023, dated 2024)",
  "key": {"[1]": {"test_system": "SW620 colorectal cancer cells expressing the TOP-GFP construct", "assay": "High-throughput screening for cell repulsion/adhesion on a high-density peptide chip, fluorescence detection", "assay_type": "cell-based", "conditions": "incubated for 24 hours on the peptide chip; for cell adhesion / cell repulsion on peptide spots, measured by the strength of the fluorescent signal: 1×10^7 cells in 3 ml, 30 µm × 30 µm spots"}, "[2]": {"test_system": "SW620 colorectal cancer cells expressing the TOP-GFP construct", "assay": "Formation of cell patterns on alternating peptide patterns, continuous fluorescence detection (live cell imaging)", "assay_type": "cell-based", "conditions": "patterns of 3 sp × 3 sp and 1 sp (30 µm); up to 24 hours of incubation; Fig. 10", "excerpt": "The settlement of cells on alternating patterns of the cell-repellent and cell-adhesive peptides IAMTPPNATEASKPQ and FLCSLFAPVCLDRPI, respectively, were examined over time (Fig. 10). […] Peptide patterns in the form of the letters KI were made of squares of 3 sp × 3 sp. The cellular patterns are clearly distinguishable as long as the area of the cell-repellent peptide has a size of 30 µm in diameter (1 sp). To follow the formation of such cellular patterns, the behaviour of cells was examined over time (continuous fluorescence detection). Fig. 10b, 10c, 10d and 10e show the different states of the same chip fragment with cell-repellent peptides at different incubation times. Relatively quickly, in the first minutes after seeding, cells randomly distribute over the entire surface (Fig. 10b) and start to form clusters (Fig. 10c), which adhere to the bottom. After that, the cell clusters leave the area of peptides with cell repulsion (Fig. 10d). […]\nOn the day of incubation, cells were detached using Accutase followed by selection in serum-containing medium (DMEM). […] After 24 hours, the plates were either analysed using confocal microscopy or fixed.\nFor imaging of the cells, a Zeiss LSM800 confocal microscope was used. […] The microscopic slide was then transferred to a live cell incubation chamber (37°C) and observed via continuous fluorescence detection for a period of 24 hours."}, "CD44v6 [3]": {"test_system": "CD44v6", "conditions": "human (1) background; Matzke-Ogi et al. 2016; cited from earlier work"}, "pancreatic tumour": {"test_system": "pancreatic tumour", "conditions": "human (1) or murine (2) background; Matzke-Ogi et al. 2016; cited from earlier work"}, "CD44v6 [4]": {"test_system": "CD44v6", "conditions": "murine (2) background; Matzke-Ogi et al. 2016; cited from earlier work"}},
  "note": "“Also recorded” adds a separate entry of the source. Like-named read-outs stand apart in the source and are kept apart here.",
  "data": [
    {"substance": "AIKNLPPPTKGQEGS", "values": [
      {"measurement": "cell adhesion / cell repulsion on peptide spots, measured by the strength of the fluorescent signal", "setting": "[1]", "result": "strongest cell-repellent properties"}
    ]},
    {"substance": "EVK", "values": [
      {"measurement": "cell adhesion / cell repulsion on peptide spots, measured by the strength of the fluorescent signal", "setting": "[1]", "result": "repellent motif for cells"}
    ]},
    {"substance": "FLCSLFAPVCLDRPI", "values": [
      {"measurement": "settlement of cells on alternating peptide patterns over time", "setting": "[2]", "result": "cell-adhesive"}
    ]},
    {"substance": "HPGSAVSASNAIKNL", "values": [
      {"measurement": "cell adhesion / cell repulsion on peptide spots, measured by the strength of the fluorescent signal", "setting": "[1]", "result": "strongest cell-repellent properties"}
    ]},
    {"substance": "IAMTPPNATEASKPQ", "values": [
      {"measurement": "settlement of cells on alternating peptide patterns over time", "setting": "[2]", "result": "cell-repellent"}
    ]},
    {"substance": "KENGDKKIVPKKKKP", "values": [
      {"measurement": "cell pattern (filling of peptide spots)", "setting": "[1]; Fig. 2", "result": "well-defined island shape"}
    ]},
    {"substance": "KEQWFGNRWHEGYR", "values": [
      {"measurement": "co-receptor function of CD44v6 of the receptor tyrosine kinase MET", "setting": "CD44v6 [3]", "result": "inhibit the co-receptor function of CD44v6"},
      {"measurement": "pancreatic tumour growth and metastasis", "setting": "pancreatic tumour", "result": "inhibit pancreatic tumour growth and metastasis"}
    ]},
    {"substance": "NGWQG", "values": [
      {"measurement": "co-receptor function of CD44v6 of the receptor tyrosine kinase MET", "setting": "CD44v6 [4]", "result": "inhibit the co-receptor function of CD44v6"},
      {"measurement": "pancreatic tumour growth and metastasis", "setting": "pancreatic tumour", "result": "inhibit pancreatic tumour growth and metastasis"}
    ]},
    {"substance": "NRWHE", "values": [
      {"measurement": "co-receptor function of CD44v6 of the receptor tyrosine kinase MET", "setting": "CD44v6 [3]", "result": "inhibit the co-receptor function of CD44v6"},
      {"measurement": "pancreatic tumour growth and metastasis", "setting": "pancreatic tumour", "result": "inhibit pancreatic tumour growth and metastasis"}
    ]},
    {"substance": "PCQRETPEGAEAKP [SEQ ID No. 13]", "values": [
      {"measurement": "cell adhesion / cell repulsion on peptide spots, measured by the strength of the fluorescent signal", "setting": "[1]", "result": "repulsive"}
    ]},
    {"substance": "QETWF", "values": [
      {"measurement": "cell adhesion / cell repulsion on peptide spots, measured by the strength of the fluorescent signal", "setting": "[1]", "result": "top ten cell-repellent peptides"}
    ]},
    {"substance": "QETWFQNGNQGKN [modified peptide of …, replacement of the amino acid W by N]", "values": [
      {"measurement": "cell adhesion / cell repulsion on peptide spots, measured by the strength of the fluorescent signal", "setting": "[1]", "result": "maximum cell repulsion"}
    ]},
    {"substance": "QETWFQNGWQGKNP", "values": [
      {"measurement": "co-receptor function of CD44v6 of the receptor tyrosine kinase MET", "setting": "CD44v6 [4]", "result": "inhibit the co-receptor function of CD44v6"},
      {"measurement": "pancreatic tumour growth and metastasis", "setting": "pancreatic tumour", "result": "inhibit pancreatic tumour growth and metastasis"}
    ]},
    {"substance": "QNGNQGKN", "values": [
      {"measurement": "cell adhesion / cell repulsion on peptide spots, measured by the strength of the fluorescent signal", "setting": "[1]", "result": "strong cell repulsion"}
    ]},
    {"substance": "SDKKPVAHVVANPQAE [SEQ ID No. 11]", "values": [
      {"measurement": "cell adhesion / cell repulsion on peptide spots, measured by the strength of the fluorescent signal", "setting": "[1]", "result": "repulsive"}
    ]},
    {"substance": "TPPNATEASKPQGTT", "values": [
      {"measurement": "cell adhesion / cell repulsion on peptide spots, measured by the strength of the fluorescent signal", "setting": "[1]", "result": "strongest cell-repellent properties"}
    ]},
    {"substance": "YPYDVPDYA [HA epitope, reference compound]", "values": [
      {"measurement": "cell adhesion / cell repulsion on peptide spots, measured by the strength of the fluorescent signal", "setting": "[1]", "result": "strong cell-attractive; also recorded: highest adhesion to cells"}
    ]}
  ]
}
